Results published in patent US7309584B2, “Mutations of the MDR1 P-glycoprotein that improves its ability to confer resistance to chemotherapeutic drugs” (The Board of Trustees of the University of Illinois, priority 2000, dated 2007).

What was measured:
[1] = test system: NIH 3T3 cells; assay: clonogenic assays for drug resistance of NIH 3T3 cells transduced with MDR1 constructs; assay type: cell-based; settings: for doxorubicin resistance relative to the LMDR1-G185V construct: FIG. 5B, 6B; for taxol resistance relative to the LMDR1-G185V construct: FIG. 6E; for vinblastine resistance relative to the LMDR1-G185V construct: FIG. 6D; for etoposide resistance relative to the LMDR1-G185V construct / fold increase in etoposide resistance relative to the LMDR1-G185V construct: FIG. 5A; for etoposide resistance relative to the LMDR1-G185V construct: 6A; for colchicine resistance relative to the LMDR1-G185V construct: FIG. 5C, 6C; for fold increase in doxorubicin resistance relative to the LMDR1-G185V construct: transduced NIH 3T3 cells, Table II; for fold increase in etoposide resistance relative to the LMDR1-G185V construct: transduced NIH 3T3 cells sorted for similar P-glycoprotein levels; for colchicine resistance relative to cells transduced with wild-type MDR1: FIG. 4B; for doxorubicin resistance relative to cells transduced with wild-type MDR1: FIG. 4C; for etoposide resistance relative to cells transduced with wild-type MDR1: FIG. 4A; for taxol resistance relative to cells transduced with wild-type MDR1: FIG. 4E; for vinblastine resistance relative to cells transduced with wild-type MDR1: FIG. 4D
Excerpt: FIGS. 4A through 4E illustrate the results of clonogenic assays for resistance to etoposide (panel A), colchicine (panel B), doxorubicin (panel C), vinblastine (panel D), and taxol (panel E) for NIH 3T3 cells transduced with LXSN (closed squares), wild-type MDR1 (closed circles), MDR1-G185V (open circles), MDR1-I186N (closed triangles), or MDR1-G185V/I186N (open triangles);
FIGS. 5A through 5C illustrate the results of clonogenic assays for resistance to etoposide (panel A), doxorubicin (panel B), and colchicine (panel C) for NIH 3T3 cells transduced with LMDR1-G185V (open circles), LMDR1-G185V-EK2 (closed triangles), LMDR1-G185V-EK3 (open triangles), or LMDR1-G185V-EK5 (closed diamonds);
FIGS. 6A through 6E illustrate the results of clonogenic assays for resistance to etoposide (panel A), doxorubicin (panel B), colchicine (panel C), vinblastine (panel D), and taxol (panel E) for NIH 3T3 cells transduced with LMDR1-G185V (closed circles), LMDR1-G185V-L56F (open circles), LMDR1-G185V-I190F/M197F (closed triangles), LMDR1-G185V-G763W (open triangles), or LMDR1-G185V-G844Q (closed squares).
Retroviral vectors carrying LXSN (negative control carrying the neomycin/G418 resistance gene), wild-type MDR1, MDR1-G185V, MDR1-I186N, or MDR1-G185V/I186N were individually transduced into NIH 3T3 cells. Populations transduced with MDR1 containing vectors were stained with the P-glycoprotein-specific monoclonal antibody MRK16, and then sorted to obtain cell populations expressing a similar level of P-glycoprotein.
NIH 3T3 cells were transduced with the LMDR1-G185V, LMDR1-G185V-EK2, LMDR1-G185V-EK3, or LMDR1-G185V-EK5 constructs, and the transduced cells were then sorted by FACS to generate pure populations of P-glycoprotein positive cells having similar levels of P-glycoprotein. Following sorting, the cell populations were analyzed for their drug resistance.
To investigate the mutants 8-A4, 5-C3, 2-B2, and 2-B1, having mutations in one of the transmembrane domains, MDR1-G185V cDNA was modified by site-directed mutagenesis to create the following constructs: LMDR1-G185V-L56F (leucine to phenylalanine mutation at residue 56), LMDR1-G185V-I190F/M197F (isoleucine to phenylalanine mutation at amino acid residue 190 and methionine to phenylalanine mutation at residue 197), LMDR1-G185V-G763W (glycine to tryptophan mutation at residue 763), and LMDR1-G185V-G844Q (glycine to glutamine mutation at residue 844). NIH 3T3 cells were transduced with either the LMDR1-G185V construct or one of the transmembrane mutant constructs, and the transduced cells were then sorted by FACS to generate pure populations of P-glycoprotein positive cells having similar levels of P-glycoprotein. Following sorting, the cell populations were analyzed for their drug resistance.

[2] = test system: NIH 3T3 cells; assay: etoposide resistance / survival in etoposide of NIH 3T3 cells transduced with rescued MDR1-G185V mutants; assay type: cell-based; settings: mutant fragments recloned into LMDR1-G185V, similar MDR1 expression
Procedure: Mutant MDR1-G185V cDNA isolated from eleven clonal lines was tested for the ability to confer elevated resistance to etoposide as compared to unmutagenized MDR1-G185V. Fragments of MDR1 cDNA containing mutations were first excised from the MDR1 cDNA using restriction endonucleases that recognize appropriate sites flanking the mutation, and then the fragments were recloned into the parental LMDR1-G185V vector. Naïve NIH 3T3 cells were individually transduced with the eleven LMDR1-G185V mutants, wild-type LMDR1-G185V, or LXSN, and then analyzed by FACS for MDR1 expression. […] The cell populations were then assayed for etoposide resistance.
An array selection strategy was employed to isolate additional MDR1 mutants conferring hyper-resistance to etoposide from the cells transduced with Mut II and selected in 10 μg/mL etoposide, as described in Example 1 (this selection scheme is shown in FIG. 1C and in FIG. 2). The 131 clonal lines from Example 1 were divided into four pools. MDR1 cDNA was recovered by PCR from each of the four pools, recloned back into LXSN, and used to transform bacterial cells to generate four MDR1 mutant libraries. These libraries were plated; individual bacterial colonies were picked and tested by array analysis. […]

Row | Substance | doxorubicin resistance relative to the LMDR1-G185V construct [1] | taxol resistance relative to the LMDR1-G185V construct [1] | vinblastine resistance relative to the LMDR1-G185V construct [1] | colchicine resistance relative to the LMDR1-G185V construct [1] | colchicine resistance relative to cells transduced with wild-type MDR1 [1] | doxorubicin resistance relative to cells transduced with wild-type MDR1 [1] | etoposide resistance relative to cells transduced with wild-type MDR1 [1] | other results
1 | G763W: MDR1-G185V construct with glycine to tryptophan mutation at residue 763 | moderate increases in doxorubicin resistance | no effect on taxol resistance | only a moderate increase in vinblastine resistance | – | – | – | – | –
2 | I190F/M197F: MDR1-G185V construct with isoleucine to phenylalanine at residue 190 and methionine to phenylalanine at residue 197 | moderate increases in doxorubicin resistance | significant increase in taxol resistance | increased vinblastine resistance | – | – | – | – | etoposide resistance relative to the LMDR1-G185V construct [1]: the greatest resistance
3 | L56F: MDR1-G185V construct with leucine to phenylalanine mutation at residue 56 | very strong resistance to doxorubicin | decreased taxol resistance | decreased vinblastine resistance | increased colchicine resistance | – | – | – | –
4 | LMDR1-G185V-EK2: MDR1-G185V construct with glutamic acid to lysine substitutions at positions 634 and 636 | increase doxorubicin resistance | – | – | decrease colchicine resistance | – | – | – | fold increase in doxorubicin resistance relative to the LMDR1-G185V construct [1]: almost two-fold increase; fold increase in etoposide resistance relative to the LMDR1-G185V construct [1]: 1.4 fold
5 | LMDR1-G185V-EK3: MDR1-G185V construct with glutamic acid to lysine substitutions at positions 643, 647, and 652 | increase doxorubicin resistance | – | – | decrease colchicine resistance | – | – | – | fold increase in doxorubicin resistance relative to the LMDR1-G185V construct [1]: nearly a four-fold increase; fold increase in etoposide resistance relative to the LMDR1-G185V construct [1]: 1.6 fold
6 | LMDR1-G185V-EK5: MDR1-G185V construct with glutamic acid to lysine substitutions at positions 634, 636, 643, 647 and 652 | – | – | – | the greatest decrease in colchicine resistance | – | – | – | etoposide resistance relative to the LMDR1-G185V construct [1]: the effect of the double and triple lysine mutants was not additive
7 | MDR1-G185V/I186N: mutant human P-glycoprotein having both G185V and I186N substitutions | – | – | – | – | indistinguishable from that obtained for cells transduced with the MDR1-G185V construct | an even higher level of doxorubicin resistance | higher level of etoposide resistance than cells transduced with either the MDR1-G185V or MDR1-I186N constructs | –
8 | MDR1-G185V: human P-glycoprotein having a glycine to valine substitution at position 185 (SEQ ID NO: 3) [reference compound] | – | – | – | – | an even higher level of colchicine resistance | doxorubicin resistance was enhanced | increase etoposide resistance | taxol resistance relative to cells transduced with wild-type MDR1 [1]: decrease resistance levels to both of these drugs; vinblastine resistance relative to cells transduced with wild-type MDR1 [1]: decrease resistance levels to both of these drugs
9 | MDR1-I186N: mutant human P-glycoprotein having an asparagine substitution at position 186 (SEQ ID NO: 4) | – | – | – | – | increase colchicine resistance | doxorubicin resistance was enhanced | increase etoposide resistance to a similar degree as the G185V substitution | taxol resistance relative to cells transduced with wild-type MDR1 [1]: increase resistance to both of these drugs; vinblastine resistance relative to cells transduced with wild-type MDR1 [1]: increase resistance to both of these drugs; etoposide resistance as compared to unmutagenized MDR1-G185V [2]: increased resistance to etoposide
